Data taken from PMC8162360, “Total synthesis of biseokeaniamides A–C and late-stage electrochemically-enabled peptide analogue synthesis” (Chemical Science, 2020).
Like-named read-outs stand apart in the source and are kept apart here. Non-standard residues stand in square brackets, D forms with d. Residues, ends and D or L forms follow the SMILES beside them. *: point of attachment. NMeF = CN[C@@H](Cc1ccccc1)C(=O)O; NMeV = CN[C@H](C(=O)O)C(C)C; Butyryl = CCCC(=O)*; X1 = CN(Cc1cccs1)*

Key:
[1] = cited from earlier work
Description: Probing the electrochemical generation and reactivity of N,O-acetals | column: pKa (R–OH)[27,28] || The reactivity of the methanol-derived N,O-acetal 6a was examined using a Friedel–Crafts-type reaction with thiophene in the presence of TFA (2.0 equiv.), which serves to regenerate the N-acyliminium for nucleophilic attack. […] How ...

[2] = tested on: A549 cells (ATCC CCL-185); assay type: cell-based; conditions: 72 h
Procedure: (§1) Evaluation of biological activity
(§2) Cell Culture of A549 and HeLa S3 Cells
(§3) 1. A549 cells (ATCC® CCL-185) were cultured at 37 °C with 5% CO2 in DMEM/F12 (Ham)
(§4) medium (Gibco, CAT#11330-032) supplemented with 10% fetal bovine serum (FBS) (Sigma-
(§5) 2. HeLa S3 cells were cultured at 37 °C with 5% CO2 in F-12K nutrient mixture, Kaighn's
(§6) modification medium (Gibco, CAT#21127-022) supplemented with 10% fetal bovine serum
(§7) (FBS) (Sigma-Aldrich, CAT#F9423).
(§8) 3. To subculture cells, media was aspirated and cell monolayers were washed once with dPBS
(§9) (Gibco), and then detached using Trypsin-EDTA (0.25%, Gibco CAT#25200114), followed
(§10) by neutralisation with growth media. Quantitation of cell number was obtained using the Life
(§11) Technologies Countess II automated cell counter.
(§12) MTT 72 Hour Viability Assay
(§13) 1. A549 and HeLa S3 cells were seeded at 600 cells/well in 40 µL into a Corning clear 384-
(§14) well plate (CAT# 3701) using the Biotek EL406, and cultured overnight.
(§15) 2. Cells were then treated with various concentrations of compounds for 72 h. 0.2% DMSO
(§16) and 25 µM Etoposide (Sigma-Aldrich) were used as controls.
(§17) 3. 10 µL of MTT reagent (ThermoFisher, diluted to 2.5 mg/mL in DPBS) was then added to
(§18) cells and incubated at 37 °C for 1.5 h.
4. Plates were then centrifuged at 800 × g for 5 min and the supernatant flicked off. 25 µL of […]
5. Absorbance was then read at 570 nm using the PerkinElmer EnVision Multimode plate […]

HeLa S3 cells = assay: MTT 72 hour viability assay, HeLa S3 cells; assay type: cell-based
Procedure: as §1, §2, §3, §4, §5, §6, §7, §8, §9, §10, §11, §12, §13, §14, §15, §16, §17, §18
4. Plates were then centrifuged at 800 × g for 5 min and the supernatant flicked off. 25 µL of
isopropanol/HCl solution was then added to each well using the Biotek EL406 and the plates
5. Absorbance was then read at 570 nm using the PerkinElmer EnVision Multimode plate
6. Statistical Analysis: Results were normalised to the average blank value (media only
control), and then presented as a percentage of the control (0.2% DMSO (vehicle) treated cells)

[3] = pKa of the alcohol or carboxylic acid R-OH used in the electrolysis

SMILES	pKa (R–OH) [1, 3]	IC50 [2] [µM]	IC50 (HeLa S3 cells; 72 h) [µM]	other results
OC(C(F)(F)F)C(F)(F)F [(CF3)2CH, hexafluoroisopropanol]	9.3	–	–	–
OCC(F)(F)F [CF3CH2, trifluoroethanol]	–	–	–	pKa (R–OH) [1]: 12.5
O=C(O)C(Cl)(Cl)Cl [Cl3CCO]	0.85	–	–	–
C=CCCN(C)C(=O)[C@@H](NC(=O)[C@H](CC(C)C)NC(=O)[C@H](Cc1ccccc1)NC(C)=O)C(C)C [Compound 19]	–	7.9	9.2	cytotoxicity compared with natural products 1a-1c (HeLa S3 cells): enhanced cytotoxicity in relation to the natural products
CCCC(=O)N(C)[C@H](C(=O)N1CCC[C@H]1C(=O)N(C)[C@@H](Cc1ccccc1)C(=O)N[C@@H](CC(C)C)C(=O)N[C@H](C(=O)N(C)Cc1cccs1)C(C)C)C(C)C [Compound 21] (Butyryl-[NMeV]P[NMeF]LV-X1)	–	27.4	18.4	cytotoxicity compared with natural products 1a-1c (HeLa S3 cells; comparative HeLa cell viability assays, Fig. 1A, MTT, 72 h): enhanced cytotoxicity in relation to the natural products
CO [Me, methanol]	15.5	–	–	–
